Test [1] has as its target T1, PNP (purine nucleoside phosphorylase) (Escherichia coli, UniProt P0ABP8).
T1 construct: expressed in transfected cells; host or cells: E. coli DH5alpha transformed with plasmid pUC-PNP73 (strain MT-10905), whole cell mass suspension
The test can be described thus: PNP residual activity of MT-10905 cell mass suspension after processing with organic solvent. It counts as biochemical. As to conditions: for PNP Activity: organic solvent 50%. Here is the method:
The activity of PNP was analyzed after the cell mass suspension was added to 1.0 ml of the reaction solution consisting of 20 mM 2′-deoxyribose-1-phosphate di(monocyclohexylammonium) salt (produced by SIGMA), 5.4 mM adenine (produced by Wako Pure Chemicals, guaranteed grade) and 100 mM tris hydrochloride buffer (pH 8.0), and then treated at 50° C. or 15 minutes. The above reaction was conducted using such an amount of the cell mass as to produce not more than 2 mM deoxyadenosine. The cell mass suspension described above was kept at 30° C. for 1 hour without addition of methanol, and then the activity of PNP of the suspension was set at 100% of relative value. The results shown in Table 2 reveal that the activity of PNP was reduced minimally, but the activity of cdd was eliminated nearly completely.
(§1) The cell mass suspension heat treated for 20 hours in Example 3 was processed with methanol in the same way as in Example 1. The individual activities of the cell mass suspension that was heat treated for 20 hours in Example 3 were set at 100% and the remaining activities were expressed with relative values. The results shown in Table 5 reveal that the activity of PNP was reduced minimally, but the activities of both cod and cdd were eliminated nearly completely.

The next test concerns the target T2, cytidine deaminase (cdd) (Escherichia coli, UniProt P0ABF6).
T2 construct: endogenous in cells; host or cells: E. coli DH5alpha transformed with pUC-PNP73 (strain MT-10905), whole cell mass suspension
The test can be described thus: cdd (cytidine deaminase) residual activity of MT-10905 cell mass suspension after processing with organic solvent. As to conditions: for cdd Activity: organic solvent 50%. The test is classed as biochemical. How it is done: To the cell mass suspension of the strain MT-10905 obtained in Reference Example 2 was added a certain amount of methanol so as to attain any one of the methanol concentrations listed in Table 2, and then the suspension was kept at 30° C. for 1 hour. Cytidine deaminase will be expressed as cdd hereafter. The activity of cdd was analyzed after the cell mass suspension was added to 1.0 ml of the reaction solution consisting of 100 mM tris hydrochloride buffer (pH 8.0) and 20 mM cytidine, and then treated at 50° C. for 2 hours.
The cell mass suspension described above was kept at 30° C. for 1 hour without addition of methanol, and then the activity of cdd of the suspension was set at 100% of relative value.
as §1

In the next test the test system is cytosine deaminase (cod). The test can be described thus: cod (cytosine deaminase) residual activity of heat treated MT-10905 cell mass suspension after processing with methanol. The test is classed as biochemical, Escherichia coli. Particulars: cells heat treated 60° C. 20 hours = 100%. Here is the method:
The cell mass suspension of the strain MT-10905 obtained in Reference Example 2 was kept at 60° C. Cytosine deaminase will be expressed as cod hereafter. The activity of cod was analyzed after the cell mass suspension was added to 100 mM tris hydrochloride buffer (pH 8.0) and 20 mM cytosine, and then treated at 50° C. for 2 hours. The cod activity of the cell mass suspension that was not heat treated was set at 100% and the remaining activities were expressed with relative values. The results shown in Table 4 reveal that the activity of PNP was reduced minimally, but the activity of cod was eliminated nearly completely.
as §1

[2] abbreviates: MeOH 10%, 30° C. 1 hour, no methanol = 100%.
[3] abbreviates: MeOH 10%, cells heat treated 60° C. 20 hours = 100%.
Where [4] appears, read: MeOH 25%, 30° C. 1 hour, no methanol = 100%.
Where [5] appears, read: MeOH 25%, cells heat treated 60° C. 20 hours = 100%.
Where [6] appears, read: MeOH 50%, 30° C. 1 hour, no methanol = 100%.
[7] abbreviates: MeOH 50%, cells heat treated 60° C. 20 hours = 100%.
[8] abbreviates: MeOH 70%, 30° C. 1 hour, no methanol = 100%.
Setting [9] is: MeOH 70%, cells heat treated 60° C. 20 hours = 100%.
Setting [10] is: MeOH 90%, 30° C. 1 hour, no methanol = 100%.
[11] abbreviates: MeOH 90%, cells heat treated 60° C. 20 hours = 100%.

The text below walks through data of patent US7629457B2, “Method for producing cytosine nucleoside compounds” (priority 2001, dated 2009).

T1 sequence (P0ABP8 2-239): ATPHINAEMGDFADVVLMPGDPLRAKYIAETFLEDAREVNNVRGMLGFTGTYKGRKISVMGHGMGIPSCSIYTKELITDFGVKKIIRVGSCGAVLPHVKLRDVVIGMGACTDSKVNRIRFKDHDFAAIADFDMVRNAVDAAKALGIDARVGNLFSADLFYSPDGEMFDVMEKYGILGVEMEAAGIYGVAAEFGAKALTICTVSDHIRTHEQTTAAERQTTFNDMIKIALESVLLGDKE
T2 sequence (P0ABF6 whole entry): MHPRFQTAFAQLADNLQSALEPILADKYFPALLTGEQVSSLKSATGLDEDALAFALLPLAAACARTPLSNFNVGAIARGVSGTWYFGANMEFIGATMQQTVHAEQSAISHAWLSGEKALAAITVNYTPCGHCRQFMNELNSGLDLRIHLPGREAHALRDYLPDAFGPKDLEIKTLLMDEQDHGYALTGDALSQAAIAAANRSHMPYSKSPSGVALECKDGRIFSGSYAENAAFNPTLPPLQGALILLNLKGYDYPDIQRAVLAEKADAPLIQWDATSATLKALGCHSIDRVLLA

For the compound `C[S+](C)[O-]` [Dimethyl Sulfoxide], the “PNP Activity” value in test [1] (30° C. 1 hour) stood at 96%. Also, on cytidine deaminase (cdd) (30° C. 1 hour), the “cdd Activity” value worked out at 4%.

As for `CO` [MeOH, methanol], the “cod Residual Activity (%)” value with cytosine deaminase (cod) (MeOH 10%) was 90%; with cytosine deaminase (cod) (MeOH 25%) it was 80%; in the test on cytosine deaminase (cod) (MeOH 50%) it was 50%; with cytosine deaminase (cod) (MeOH 70%), 30%; with cytosine deaminase (cod) (MeOH 90%), 10%. The “PNP Residual Activity (%)” value is on record as 100% in test [1] (setting [2]); 100% in test [1] (setting [3]); 99% in test [1] (setting [4]); 98% in test [1] (setting [5]); 98% in test [1] (setting [6]); 96% in test [1] (setting [7]). The “PNP Residual Activity (%)” value in test [1] (setting [8]) is reported as 97%; in test [1] (setting [9]) it was 96%; in test [1] (setting [10]) it was 97%; in test [1] (setting [11]), 96%. Moreover, the “cdd Residual Activity (%)” value at cytidine deaminase (cdd) (setting [2]) is 80%; on cytidine deaminase (cdd) (setting [3]) it was 80%; on cytidine deaminase (cdd) (setting [4]) it was 50%; at cytidine deaminase (cdd) (setting [5]), 50%; at cytidine deaminase (cdd) (setting [6]), 10%; at cytidine deaminase (cdd) (setting [7]), 10%. Besides, the “cdd Residual Activity (%)” value on cytidine deaminase (cdd) (setting [8]) is listed as 0.5%; on cytidine deaminase (cdd) (setting [9]) it was 0.5%; on cytidine deaminase (cdd) (setting [10]), 0.1%; at cytidine deaminase (cdd) (setting [11]), 0.1%.

As for `CN(C)C=O` [N,N-Dimethylformamide], in test [1] (30° C. 1 hour), the “PNP Activity” value was 97%. Further, the “cdd Activity” value at cytidine deaminase (cdd) (30° C. 1 hour) is given as 5%.

As for `CN1CCN(C)C1=O` [N,N-Dimethylimidazolidinone], the “PNP Activity” value in test [1] (30° C. 1 hour) was found to be 95%. Moreover, at cytidine deaminase (cdd) (30° C. 1 hour), the “cdd Activity” value was 4%.
